Results: ChEMBL document CHEMBL1147034, “Synthesis and evaluation of 2',4',6'-trihydroxychalcones as a new class of tyrosinase inhibitors” (Bioorg Med Chem, 2007)

target: T1, Tyrosinase (Agaricus bisporus) (UniProt O42713); experiment: Inhibition of mushroom tyrosinase at 400 uM
T1 sequence (whole entry): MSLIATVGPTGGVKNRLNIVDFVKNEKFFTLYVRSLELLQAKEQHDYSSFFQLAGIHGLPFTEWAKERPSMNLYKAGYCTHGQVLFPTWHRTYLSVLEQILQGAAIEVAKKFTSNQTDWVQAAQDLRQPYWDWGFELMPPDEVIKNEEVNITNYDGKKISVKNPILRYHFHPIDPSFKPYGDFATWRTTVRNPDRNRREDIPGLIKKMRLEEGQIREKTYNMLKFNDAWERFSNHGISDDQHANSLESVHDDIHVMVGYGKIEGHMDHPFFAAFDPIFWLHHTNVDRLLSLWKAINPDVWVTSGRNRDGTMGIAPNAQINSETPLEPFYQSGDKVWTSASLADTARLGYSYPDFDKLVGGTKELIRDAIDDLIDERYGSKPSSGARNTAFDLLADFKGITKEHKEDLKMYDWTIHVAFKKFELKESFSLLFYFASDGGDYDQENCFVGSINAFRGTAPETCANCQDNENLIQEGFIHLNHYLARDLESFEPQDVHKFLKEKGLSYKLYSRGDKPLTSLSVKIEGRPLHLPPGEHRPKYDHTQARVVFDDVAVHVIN

Structure (SMILES)	inhibition [%]
COc1cc(O)c(C(=O)/C=C/c2ccc(O)c(O)c2)c(OC)c1	< 20
O=C(/C=C/c1ccc(O)c(O)c1)c1ccc(O)c(O)c1	< 20
COc1cc(O)c(C(=O)/C=C/c2cccc(O)c2O)c(OC)c1	< 20
O=C(/C=C/c1ccc(O)cc1O)c1c(O)cc(O)cc1O	72
COc1cc(O)c(C(=O)/C=C/c2cc(O)c(O)c(O)c2)c(OC)c1	< 20
O=C(/C=C/c1ccccc1)c1c(O)cccc1O	< 20
O=C(/C=C/c1ccccc1)c1ccc(O)cc1O	< 20
O=C(/C=C/c1ccc(O)c(O)c1)c1c(O)cc(O)cc1O	< 20
O=C(/C=C/c1ccc(O)c(O)c1)c1ccccc1O	< 20

target: T2, Tyrosinase (Agaricus bisporus, UniProt O42713)
T2 sequence (O42713 whole entry): T1 sequence (whole entry)

Structure (SMILES)	IC50 [µM]	Ki [µM]
O=C(/C=C/c1ccc(O)cc1O)c1ccc(O)cc1O	5	–
O=C(/C=C/c1ccc(O)cc1O)c1c(O)cc(O)cc1O	1	3.1
O=C(/C=C/c1cc(O)c(O)c(O)c1)c1c(O)cc(O)cc1O	200	–
O=C(/C=C/c1cccc(O)c1O)c1c(O)cc(O)cc1O	193	–
COc1cc(O)cc(O)c1C(=O)/C=C/c1ccc(O)cc1O	3.1	–
COc1ccc(/C=C/C(=O)c2c(O)cc(O)cc2O)cc1OC	150	–
